Measurements reported in ChEMBL document CHEMBL3271999, “Antimycotic imidazoles. 2. Synthesis and antimycotic properties of 1-[2-(arylalkyl)-2-phenylethyl]-1H-imidazoles” (1977).
Active and inactive are the calls of the source. No cut-off for these calls is given here.

Tests used:
Sporothrix schenckii = assay: Antifungal activity against Sporothrix schenckii assessed as lowest dose level for total inhibition of fungal growth; type: functional
Cryptococcus neoformans = assay: Antifungal activity against Cryptococcus neoformans assessed as lowest dose level for total inhibition of fungal growth; type: functional
Candida albicans [1] = assay: Antifungal activity against Candida albicans assessed as lowest dose level for total inhibition of fungal growth; type: functional
[2] = test system: Erysipelothrix rhusiopathiae; assay: Antibacterial activity against Erysipelothrix insidiosa assessed as lowest dose level for total inhibition of bacterial growth; type: functional
Streptococcus pyogenes = assay: Antibacterial activity against Streptococcus pyogenes assessed as lowest dose level for total inhibition of bacterial growth; type: functional
Trichophyton rubrum = assay: Antifungal activity against Trichophyton rubrum assessed as lowest dose level for total inhibition of fungal growth; type: functional
[3] = test system: Trichophyton mentagrophytes; assay: Antifungal activity against Trichophyton mentagrophytes assessed as lowest dose level for total inhibition of fungal growth; type: functional
Mucor = assay: Antifungal activity against Mucor species assessed as lowest dose level for total inhibition of fungal growth; type: functional
[4] = test system: Staphylococcus haemolyticus; assay: Antibacterial activity against Staphylococcus haemolyticus assessed as lowest dose level for total inhibition of bacterial growth; type: functional
Phialophora verrucosa = assay: Antifungal activity against Phialophora verrucosa assessed as lowest dose level for total inhibition of fungal growth; type: functional
Aspergillus fumigatus = assay: Antifungal activity against Aspergillus fumigatus assessed as lowest dose level for total inhibition of fungal growth; type: functional
Microsporum canis = assay: Antifungal activity against Microsporum canis assessed as lowest dose level for total inhibition of fungal growth; type: functional
Candida albicans [5] = assay: In vivo antifungal activity against Candida albicans topically infected in guinea pig assessed as animal cured at 10 mg/kg, po; type: functional, organism-based; design: dose 10 mg/kg
Candida tropicalis = assay: Antifungal activity against Candida tropicalis assessed as lowest dose level for total inhibition of fungal growth; type: functional
Saprolegnia = assay: Antifungal activity against Saprolegnia species assessed as lowest dose level for total inhibition of fungal growth; type: functional

| SMILES | Activity (Sporothrix schenckii) [µg/mL] | Activity (Cryptococcus neoformans) [µg/mL] | Activity (Candida albicans [1]) [µg/mL] | Activity [2] [µg/mL] | Activity (Streptococcus pyogenes) [µg/mL] | Activity (Trichophyton rubrum) [µg/mL] | Activity [3] [µg/mL] | Activity (Mucor) [µg/mL] | Activity [4] [µg/mL] | Activity (Phialophora verrucosa) [µg/mL] | Activity (Aspergillus fumigatus) [µg/mL] | Activity (Microsporum canis) [µg/mL] | Activity (Candida albicans [5]) | Activity (Candida tropicalis) [µg/mL] | Activity (Saprolegnia) [µg/mL] |
| --- | --- | --- | --- | --- | --- | --- | --- | --- | --- | --- | --- | --- | --- | --- | --- |
| Clc1ccc(CC(Cn2ccnc2)c2ccc(Cl)cc2Cl)cc1.O=[N+]([O-])O (stereo not given) | 10 | <1 | 100 | <1 | <1 | <1 | <1 | 100 | 10 | 100 | 100 | 10 | inactive | 100 | <1 |
| Clc1ccc(C(CCc2ccccc2)Cn2ccnc2)c(Cl)c1.O=[N+]([O-])O (stereo not given) | 10 | <1 | 100 | <1 | <1 | <1 | <1 | 100 | 1 | 10 | 100 | 10 | inactive | >100 | 10 |
| Clc1ccc(CCC(Cn2ccnc2)c2ccc(Cl)cc2Cl)c(Cl)c1.O=[N+]([O-])O (stereo not given) | 10 | <1 | >100 | <1 | <1 | <1 | <1 | >100 | 100 | >100 | 100 | 10 | inactive | >100 | 100 |
| Clc1ccc(C(Cc2ccccc2Cl)Cn2ccnc2)cc1.O=[N+]([O-])O (stereo not given) | 100 | <1 | 100 | 1 | 10 | <1 | <1 | 10 | 10 | 100 | 100 | 10 | inactive | 100 | 100 |
| Clc1ccc(CC(Cn2ccnc2)c2ccccc2Cl)c(Cl)c1.O=[N+]([O-])O (stereo not given) | 10 | <1 | 100 | 10 | <1 | <1 | <1 | 100 | 100 | 100 | 100 | 10 | inactive | >100 | 100 |
| Clc1ccc(CC(Cn2ccnc2)c2ccccc2Br)c(Cl)c1.O=[N+]([O-])O (stereo not given) | 10 | <1 | 10 | <1 | 10 | <1 | <1 | 10 | <1 | 100 | 10 | 10 | inactive | 100 | 100 |
| Clc1ccc(CC(Cn2ccnc2)c2c(Cl)cccc2Cl)cc1.O=[N+]([O-])O (stereo not given) | 100 | 100 | 100 | <1 | <1 | <1 | <1 | >100 | 100 | 100 | 100 | <1 | inactive | >100 | 100 |
| Clc1ccc(CC(Cn2ccnc2)c2ccccc2Cl)cc1.O=[N+]([O-])O (stereo not given) | 10 | <1 | 10 | 1 | 1 | <1 | <1 | 100 | 100 | 100 | 100 | 10 | Active | >100 | 100 |
| COc1ccc(CC(Cn2ccnc2)c2ccc(Cl)cc2Cl)cc1.O=[N+]([O-])O (stereo not given) | 10 | <1 | 10 | 1 | 1 | <1 | <1 | 10 | 10 | 10 | 100 | 100 | inactive | 10 | 100 |
| COc1ccc(CCC(Cn2ccnc2)c2ccc(Cl)cc2Cl)cc1.O=[N+]([O-])O (stereo not given) | 10 | <1 | >100 | <1 | <1 | <1 | <1 | 100 | 1 | 10 | 100 | 10 | inactive | >100 | 10 |
| Clc1ccc(C(Cc2ccc(Br)cc2)Cn2ccnc2)c(Cl)c1.O=[N+]([O-])O (stereo not given) | 10 | <1 | 10 | <1 | <1 | <1 | <1 | 10 | 10 | 10 | 100 | 10 | inactive | 10 | 100 |
| Clc1ccc(CCC(Cn2ccnc2)c2ccc(Cl)cc2Cl)cc1.O=[N+]([O-])O (stereo not given) | <1 | <1 | 10 | <1 | <1 | <1 | <1 | 100 | 1 | 10 | 100 | 10 | inactive | 10 | 10 |
